Data as given in PMC5344672 (Journal of medicinal chemistry, 2016).
Entries after “also recorded” stand apart in the source; their conditions may differ.

Assays:
[1] = target: MOR-1 (Mus musculus, UniProt P42866); assay: [35S]GTPγS functional assay, MOR-1 transfected cells; assay type: biochemical; settings: in words
[2] = target: DOR-1 (Mus musculus, UniProt P32300); assay: [35S]GTPγS functional assay, DOR-1 transfected cells; assay type: biochemical; settings: in words
[3] = target: KOR-1 (Mus musculus, UniProt P33534); assay type: biochemical
KOR-1, sequence (P33534 whole entry): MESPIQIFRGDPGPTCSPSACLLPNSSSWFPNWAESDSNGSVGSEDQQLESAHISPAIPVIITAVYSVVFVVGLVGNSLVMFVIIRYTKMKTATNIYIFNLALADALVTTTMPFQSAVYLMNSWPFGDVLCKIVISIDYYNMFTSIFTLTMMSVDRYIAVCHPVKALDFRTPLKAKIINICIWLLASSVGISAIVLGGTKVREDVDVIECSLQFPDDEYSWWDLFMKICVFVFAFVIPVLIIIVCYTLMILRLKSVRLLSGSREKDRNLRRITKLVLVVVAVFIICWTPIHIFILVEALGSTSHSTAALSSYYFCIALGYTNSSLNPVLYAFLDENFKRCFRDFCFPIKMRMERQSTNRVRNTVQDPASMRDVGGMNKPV

[4] = target: panel of other nonopioid drug targets; assay: PDSP screening panel; assay type: binding; settings: read-out: Ki at nonopioid drug targets
[5] = test system: mice; settings: mouse, in vivo
[6] = test system: mice; assay: Antinociceptive tolerance after repeated dosing; assay type: in vivo, mouse; settings: twice daily dosing
[7] = target: T1, α2C adrenergic receptor (Homo sapiens, UniProt P18825); assay: PDSP screening; assay type: binding; settings: in words (Table S1)
T1 sequence (P18825 1-462): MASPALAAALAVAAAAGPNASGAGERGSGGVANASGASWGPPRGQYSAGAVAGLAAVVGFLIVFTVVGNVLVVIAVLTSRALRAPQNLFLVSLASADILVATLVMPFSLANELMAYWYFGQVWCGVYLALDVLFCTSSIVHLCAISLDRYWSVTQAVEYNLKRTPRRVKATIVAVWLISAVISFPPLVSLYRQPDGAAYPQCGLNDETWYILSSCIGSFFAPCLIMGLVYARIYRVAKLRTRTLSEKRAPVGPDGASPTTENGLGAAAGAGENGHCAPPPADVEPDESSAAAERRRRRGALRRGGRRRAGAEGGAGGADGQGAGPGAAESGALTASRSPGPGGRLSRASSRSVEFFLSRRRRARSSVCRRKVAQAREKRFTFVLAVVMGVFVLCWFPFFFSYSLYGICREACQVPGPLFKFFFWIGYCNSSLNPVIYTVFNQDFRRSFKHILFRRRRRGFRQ

[8] = test system: mice; assay: Gastrointestinal transit; assay type: in vivo, mouse
[9] = test system: mice; assay: Radiant heat tail flick antinociception; assay type: in vivo, mouse
[10] = test system: CD1 mice; assay: Reversal of tail flick antinociception by selective antagonists; assay type: in vivo, mouse; settings: 3 1.5 mg/kg sc; β-FNA 40 mg/kg, norBNI 10 mg/kg, NTI 0.5 mg/kg, naloxone 1 mg/kg, yohimbine 10 mg/kg
[11] = target: T2, α2A adrenergic receptor (Homo sapiens, UniProt P08913); assay: PDSP screening; assay type: binding; settings: in words (Table S1)
T2 sequence (P08913 1-465): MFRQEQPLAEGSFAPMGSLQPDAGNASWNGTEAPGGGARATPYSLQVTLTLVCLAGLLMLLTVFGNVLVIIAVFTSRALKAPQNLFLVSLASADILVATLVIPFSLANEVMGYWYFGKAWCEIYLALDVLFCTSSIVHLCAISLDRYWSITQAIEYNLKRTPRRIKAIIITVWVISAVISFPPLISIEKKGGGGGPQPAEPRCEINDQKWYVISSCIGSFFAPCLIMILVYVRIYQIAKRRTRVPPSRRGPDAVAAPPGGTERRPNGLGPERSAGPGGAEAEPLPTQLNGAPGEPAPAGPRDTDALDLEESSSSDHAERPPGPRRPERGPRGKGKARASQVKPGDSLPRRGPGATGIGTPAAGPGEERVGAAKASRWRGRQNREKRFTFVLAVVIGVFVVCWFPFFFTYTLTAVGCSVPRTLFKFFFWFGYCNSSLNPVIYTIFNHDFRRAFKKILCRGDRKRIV

[12] = test system: mice; assay: Antisense oligodeoxynucleotide mapping of tail flick antinociception; assay type: in vivo, mouse; settings: 3 1.5 mg/kg sc, antisense icv days 1, 3, 5, test day 6
[13] = test system: C57BL/6 mice; assay: Respiratory rate; assay type: in vivo, mouse
[14] = target: 5HT7 (Homo sapiens, UniProt P34969); assay: PDSP screening; assay type: binding; settings: in words (Table S1)
5HT7, sequence (P34969 whole entry, species assumed): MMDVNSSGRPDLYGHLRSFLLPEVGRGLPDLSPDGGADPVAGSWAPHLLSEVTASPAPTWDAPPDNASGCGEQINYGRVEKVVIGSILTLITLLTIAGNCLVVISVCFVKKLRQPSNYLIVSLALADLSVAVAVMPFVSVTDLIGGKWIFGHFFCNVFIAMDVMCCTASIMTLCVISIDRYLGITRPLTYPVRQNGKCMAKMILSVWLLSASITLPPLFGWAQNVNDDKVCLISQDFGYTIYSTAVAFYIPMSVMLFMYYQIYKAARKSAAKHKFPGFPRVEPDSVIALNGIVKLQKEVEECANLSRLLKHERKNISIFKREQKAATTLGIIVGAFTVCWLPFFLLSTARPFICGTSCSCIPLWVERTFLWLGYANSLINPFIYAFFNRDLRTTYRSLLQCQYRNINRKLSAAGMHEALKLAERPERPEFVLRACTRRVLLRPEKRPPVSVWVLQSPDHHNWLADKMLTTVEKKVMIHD

[15] = dose twice analgesic ED50: morphine 5 mg/kg sc, 3 1.5 mg/kg sc
[16] = higher dose: morphine 10 mg/kg, 3 3 mg/kg sc
[17] = ~2× analgesic ED50: morphine 5 mg/kg sc, 3 1.2 mg/kg sc

DOR-1, sequence (P32300 whole entry): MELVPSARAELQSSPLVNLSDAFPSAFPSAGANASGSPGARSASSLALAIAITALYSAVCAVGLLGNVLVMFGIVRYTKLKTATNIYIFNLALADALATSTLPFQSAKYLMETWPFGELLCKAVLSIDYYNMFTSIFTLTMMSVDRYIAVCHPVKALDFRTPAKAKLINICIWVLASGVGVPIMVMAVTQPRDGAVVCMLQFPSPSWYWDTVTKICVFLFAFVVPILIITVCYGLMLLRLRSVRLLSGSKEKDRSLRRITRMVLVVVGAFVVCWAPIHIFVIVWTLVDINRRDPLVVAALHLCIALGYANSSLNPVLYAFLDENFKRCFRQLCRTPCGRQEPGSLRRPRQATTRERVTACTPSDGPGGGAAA
MOR-1, sequence (P42866 whole entry): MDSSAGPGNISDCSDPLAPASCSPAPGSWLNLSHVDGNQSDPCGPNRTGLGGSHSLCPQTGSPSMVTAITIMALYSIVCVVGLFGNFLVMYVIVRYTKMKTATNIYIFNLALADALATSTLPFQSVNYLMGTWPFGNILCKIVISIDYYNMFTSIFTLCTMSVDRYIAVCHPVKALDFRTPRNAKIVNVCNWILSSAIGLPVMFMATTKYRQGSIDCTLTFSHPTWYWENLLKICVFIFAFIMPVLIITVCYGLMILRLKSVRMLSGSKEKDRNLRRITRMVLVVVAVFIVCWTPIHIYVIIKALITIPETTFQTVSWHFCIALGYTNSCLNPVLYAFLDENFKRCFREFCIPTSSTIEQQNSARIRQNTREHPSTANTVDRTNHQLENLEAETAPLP

`CC[C@@H]1CN2CC[C@@]3(O)C(=Nc4cccc(OC)c43)[C@@H]2C[C@@H]1/C(=C\OC)C(=O)OC` [Compound 2, (E)-Methyl-2-((2S,3S,7aS)-3-ethyl-7a-hydroxy-8-methoxy-1,2,3,4,6,7,7a,12b-octahydroindolo[2,3-a]quinolizin-2-yl)-3-methoxyacrylate] was tested, and the “functional character at MOR-1” value [1] was “partial agonist”, the “functional character at DOR-1” value [2] was “weak KOR-1 and DOR-1 antagonist” and the “functional character at KOR-1” value [3] was “weak KOR-1 and DOR-1 antagonist”. The Ki [4] was over 10 µM.
`CC[C@@H]1CN2CC[C@]3(Nc4cccc(OC)c4C3=O)[C@@H]2C[C@@H]1/C(=C\OC)C(=O)OC` [Compound 3, (E)-Methyl-2-((1′S,6′S,7′S)-6′-ethyl-4-methoxy-3-oxo-3′,5′,6′,7′,8′,8a′-hexahydro-2′H-spiro[indoline-2,1′-indolizine]-7′-yl)-3-methoxyacrylate] was tested, and the “conditioned place preference or aversion” value [5] was “neither preference or aversive behavior”, the “ED50 shift after 5 days” value [6] was under 2 fold and the “mean difference between 3 and morphine groups on day 5” value ([6]; 95% CI 42.27 to 65.67) was 53.97 %MPE. For the same compound, the “affinity at α2C adrenergic receptor” value [7] was “poor affinity”, the “effect on gastrointestinal transit” value ([8]; 3 at 4 mg/kg sc) was “no further inhibition” and the “effect on gastrointestinal transit” value [8, 15] was “lowered gastrointestinal transit, but not nearly as much as morphine”. The “antinociceptive activity across mouse strains” value ([9]; CD1, C57BL/6 and 129Sv6 mice, sc (Figure S5)) was “equally active”, the “ED50 (95% CI), intracerebroventricular” value ([9]; CD1 mice, icv, tail flick, 15 min) was 0.38 (0.18- 0.81) μg and the “ED50, exon 1/exon 11 double KO mice” value ([9]; E1/E11 MOR-1 KO mice, sc, tail flick) was “no antinociception was observed”. The “functional character at MOR-1” value [1] was “potent full agonist”, the “functional character at DOR-1” value [2] was “antagonist” and the “functional character at KOR-1” value [3] was “antagonist”. For the same compound, the “sensitivity of antinociception to antagonists” value [10] was “insensitive to NTI, norBNI, and yohimbine; also recorded: antagonized by β-FNA and naloxone”, the “affinity at α2A adrenergic receptor” value [11] was “poor affinity” and the “effect of antisense receptor downregulation on analgesic response” value [12] was “only affected in mu receptor downregulated mice (MOR-1 AN)”. The “decrease of respiratory rate” value [13, 16] was “approximately 15%”, the “decrease of respiratory rate” value [13, 17] was “no respiratory depression” and the “affinity at 5HT7” value [14] was “poor affinity”.
In the case of `CC[C@@H]1CN2CC[C@]3(Nc4cccc(O)c4C3=O)[C@@H]2C[C@@H]1/C(=C\OC)C(=O)OC` [Compound 4, (E)-Methyl-2-((1′S,6′S,7′S)-6′-ethyl-4-hydroxy-3-oxo-3′,5′,6′,7′,8′,8a′-hexahydro-2′H-spiro[indoline-2,1′-indolizine]-7′-yl)-3-methoxyacrylate], the “functional character at MOR-1” value [1] is reported as “MOR-1 agonists” and the “functional character at DOR-1” value [2] is reported as “DOR-1 antagonists”.
With `CC[C@@H]1CN2CC[C@]3(Nc4ccccc4C3=O)[C@@H]2C[C@@H]1/C(=C\OC)C(=O)OC` [Compound 6, (E)-Methyl-2-((1′S,6′S,7′S)-6′-ethyl-3-oxo-3′,5′,6′,7′,8′,8a′-hexahydro-2′H-spiro[indoline-2,1′-indolizin]-7′-yl)-3-methoxyacrylate] the “functional character at MOR-1” value [1] was “MOR-1 agonists” and the “functional character at DOR-1” value [2] was “DOR-1 antagonists”.
In the case of `CC[C@@H]1CN2CC[C@]3(Nc4cccc(C#N)c4C3=O)[C@@H]2C[C@@H]1/C(=C\OC)C(=O)OC` [Compound 7, (E)-Methyl-2-((1′S,6′S,7′S)-4-cyano-6′-ethyl-3-oxo-3′,5′,6′,7′,8′,8a′-hexahydro-2′H-spiro[indoline-2,1′-indolizine]-7′-yl)-3-methoxyacrylate], the “functional character at MOR-1” value [1] is reported as “MOR-1 agonists” and the “functional character at DOR-1” value [2] is reported as “DOR-1 antagonists”.
`CC[C@@H]1CN2CC[C@]3(Nc4cccc(-c5ccccc5)c4C3=O)[C@@H]2C[C@@H]1/C(=C\OC)C(=O)OC` [Compound 8, (E)-Methyl-2-((1′S,6′S,7′S)-6′-ethyl-3-oxo-4-phenyl-3′,5′,6′,7′,8′,8a′-hexahydro-2′H-spiro[indoline-2,1′-indolizine]-7′-yl)-3-methoxyacrylate] was tested, and the “functional character at MOR-1” value [1] was “dual MOR-1/DOR-1 agonist” and the “functional character at DOR-1” value [2] was “dual MOR-1/DOR-1 agonist”.
With `CC[C@@H]1CN2CC[C@]3(Nc4cccc(-c5ccoc5)c4C3=O)[C@@H]2C[C@@H]1/C(=C\OC)C(=O)OC` [Compound 9, (E)-Methyl-2-((1′S,6′S,7′S)-6′-ethyl-4-(furan-3-yl)-3-oxo-3′,5′,6′,7′,8′,8a′-hexahydro-2′H-spiro[indoline-2,1′-indolizine]-7′-yl)-3-methoxyacrylate] the “functional character at MOR-1” value [1] was “MOR-1 agonists” and the “functional character at DOR-1” value [2] was “DOR-1 antagonists”.
`CN1CC[C@]23c4c5ccc(O)c4O[C@H]2[C@@H](O)C=C[C@H]3[C@H]1C5` [morphine, reference compound] was tested, and the “conditioned place preference or aversion” value [5] was “significant conditioned place preference”, the “ED50 after 5 days” value ([6]; day 5) was 12.1 (7.6–19.4) mg/kg and the “effect on gastrointestinal transit” value [8, 15] was “almost totally eliminated transit”. The ED50 ([9]; Mus musculus, sc, 0.25 h, read-out: antinociception sc, ED50 mg/kg (CI)) was 2.5 mg/kg, the “decrease of respiratory rate” value [13, 16] was “approximately 50%” and the “decrease of respiratory rate” value [13, 17] was “approximately 30%”.
